Measured values from ChEMBL document CHEMBL1201862, “PubChem BioAssay data set” (2004).
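Assay format: 96-well plates, 48-hour exposure. At the GI50, growth is halved.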 Active and inactive are the calls of the source. No stated cut-off is given here; in the data, active = GI50 up to about 1.1 µM and inactive = higher.

Experiments:
Test in all cases: NCI-60 cell line screen, 48 h
NCI-H23 = tested on: NCI-H23
SNB-19 = tested on: SNB-19
EKVX = tested on: EKVX
SK-OV-3 = tested on: SK-OV-3
HL-60 = tested on: HL-60
786-0 = tested on: 786-0
IGROV-1 = tested on: IGROV-1
HOP-18 = tested on: HOP-18
HT-29 = tested on: HT-29
CAKI-1 = tested on: CAKI-1
SW-620 = tested on: SW-620
OVCAR-3 = tested on: OVCAR-3
SF-295 = tested on: SF-295
A498 = tested on: A498
LOX IMVI = tested on: LOX IMVI
SK-MEL-28 = tested on: SK-MEL-28
M14 = tested on: M14
LXFL 529 = tested on: LXFL 529
SF-539 = tested on: SF-539
HOP-62 = tested on: HOP-62
OVCAR-8 = tested on: OVCAR-8
ACHN = tested on: ACHN
SN12C = tested on: SN12C
HCT-15 = tested on: HCT-15
NCI-H460 = tested on: NCI-H460
KM-20L2 = tested on: KM-20L2
TK-10 = tested on: TK-10
A549 = tested on: A549
KM12 = tested on: KM12
OVCAR-5 = tested on: OVCAR-5
SNB-78 = tested on: SNB-78
HCC 2998 = tested on: HCC 2998
RXF 631 = tested on: RXF 631
OVCAR-4 = tested on: OVCAR-4
DMS-114 = tested on: DMS-114
UACC-257 = tested on: UACC-257
NCI-H522 = tested on: NCI-H522
MOLT-4 = tested on: MOLT-4
SF-268 = tested on: SF-268
UACC-62 = tested on: UACC-62
SK-MEL-5 = tested on: SK-MEL-5
U-251 = tested on: U-251
M19-MEL = tested on: M19-MEL
DLD-1 = tested on: DLD-1
HOP-92 = tested on: HOP-92
UO-31 = tested on: UO-31
XF498 = tested on: XF498
RPMI-8226 = tested on: RPMI-8226
SR = tested on: SR
CCRF-CEM = tested on: CCRF-CEM
SNB-75 = tested on: SNB-75
DMS-273 = tested on: DMS-273
HCT-116 = tested on: HCT-116
T47D = tested on: T47D
RXF 393 = tested on: RXF 393
MDA-MB-435 = tested on: MDA-MB-435
Hs-578T = tested on: Hs-578T
MDA-MB-231 = tested on: MDA-MB-231
COLO 205 = tested on: COLO 205
SK-MEL-2 = tested on: SK-MEL-2
Malme-3M = tested on: Malme-3M
K562 = tested on: K562
NCI-H226 = tested on: NCI-H226
DU-145 = tested on: DU-145
BT-549 = tested on: BT-549
PC-3 = tested on: PC-3
MCF7 = tested on: MCF7
NCI/ADR-RES = tested on: NCI/ADR-RES
MDA-N = tested on: MDA-N

## CC1(C)CC(N(C(=O)/C=C/c2ccc([N+](=O)[O-])o2)C2CCCCC2)CC(C)(C)N1
NCI-H23
  GI50: 9.46 µM (inactive)
SNB-19
  GI50: 13.1 µM (inactive)
EKVX
  GI50: 13.9 µM (inactive)
SK-OV-3
  GI50: 28.6 µM (inactive)
HL-60
  GI50: 2.21 µM (inactive)
786-0
  GI50: 6.82 µM (inactive)
IGROV-1
  GI50: 14.3 µM (inactive)
HOP-18
  GI50: 22.8 µM (inactive)
HT-29
  GI50: 4.49 µM (inactive)
CAKI-1
  GI50: 5.52 µM (inactive)
SW-620
  GI50: 2.55 µM (inactive)
OVCAR-3
  GI50: 12.3 µM (inactive)
SF-295
  GI50: 13.5 µM (inactive)
A498
  GI50: 16.2 µM (inactive)
LOX IMVI
  GI50: 12 µM (inactive)
SK-MEL-28
  GI50: 12.5 µM (inactive)
M14
  GI50: 2.82 µM (inactive)
LXFL 529
  GI50: 5.36 µM (inactive)
SF-539
  GI50: 9.86 µM (inactive)
HOP-62
  GI50: 20 µM (inactive)
OVCAR-8
  GI50: 5.2 µM (inactive)
ACHN
  GI50: 12.8 µM (inactive)
SN12C
  GI50: 6.22 µM (inactive)
HCT-15
  GI50: 7.45 µM
NCI-H460
  GI50: 3.71 µM (inactive)
KM-20L2
  GI50: 5.38 µM (inactive)
TK-10
  GI50: 21.3 µM (inactive)
A549
  GI50: 15 µM (inactive)
KM12
  GI50: 10.3 µM (inactive)
OVCAR-5
  GI50: 23.6 µM (inactive)
SNB-78
  GI50: 10.5 µM (inactive)
HCC 2998
  GI50: 11.3 µM (inactive)
RXF 631
  GI50: 10.6 µM (inactive)
OVCAR-4
  GI50: 10.4 µM (inactive)
DMS-114
  GI50: 2.55 µM (inactive)
UACC-257
  GI50: 11.1 µM (inactive)
NCI-H522
  GI50: 7.91 µM (inactive)
MOLT-4
  GI50: 3.96 µM (inactive)
SF-268
  GI50: 7.62 µM (inactive)
UACC-62
  GI50: 10 µM (inactive)
SK-MEL-5
  GI50: 10.2 µM (inactive)
U-251
  GI50: 5.35 µM (inactive)
M19-MEL
  GI50: 5.11 µM (inactive)
DLD-1
  GI50: 1.73 µM (inactive)
HOP-92
  GI50: 3.65 µM (inactive)
UO-31
  GI50: 12.2 µM (inactive)
XF498
  GI50: 11.4 µM (inactive)
RPMI-8226
  GI50: 3.29 µM (inactive)
SR
  GI50: 5.89 µM (inactive)
CCRF-CEM
  GI50: 3.25 µM (inactive)
SNB-75
  GI50: 10.5 µM (inactive)
DMS-273
  GI50: 5.52 µM (inactive)
HCT-116
  GI50: 3.18 µM (inactive)

## COc1ccccc1/C=C1\CCC(Cc2ccccc2)(CN(C)C)C1=O (configuration not stated)
NCI-H23
  GI50: 6.43 µM (inactive)
SNB-19
  GI50: 1.57 µM (inactive)
T47D
  GI50: 22.2 µM (inactive)
RXF 393
  GI50: 7.93 µM (inactive)
EKVX
  GI50: 3.35 µM (inactive)
MDA-MB-435
  GI50: 1.07 µM (active)
SK-OV-3
  GI50: 8.36 µM (inactive)
Hs-578T
  GI50: 0.834 µM (active)
MDA-MB-231
  GI50: 4.59 µM (inactive)
HL-60
  GI50: 0.471 µM (active)
786-0
  GI50: 1.43 µM (inactive)
IGROV-1
  GI50: 3.67 µM (inactive)
HOP-18
  GI50: > 26.4 µM (inactive)
HT-29
  GI50: 0.426 µM (active)
CAKI-1
  GI50: 2.38 µM (inactive)
SW-620
  GI50: 0.259 µM (active)
OVCAR-3
  GI50: 0.942 µM (active)
SF-295
  GI50: 1.34 µM (inactive)
A498
  GI50: 6.93 µM (inactive)
LOX IMVI
  GI50: 1.19 µM (inactive)
SK-MEL-28
  GI50: 20.3 µM (inactive)
M14
  GI50: 3.13 µM (inactive)
COLO 205
  GI50: 1.37 µM (inactive)
LXFL 529
  GI50: 4.55 µM (inactive)
SF-539
  GI50: 1.52 µM (inactive)
HOP-62
  GI50: 11.6 µM (inactive)
SK-MEL-2
  GI50: 6.53 µM (inactive)
OVCAR-8
  GI50: 2.33 µM (inactive)
ACHN
  GI50: 12.6 µM (inactive)
Malme-3M
  GI50: 14.1 µM (inactive)
SN12C
  GI50: 3.75 µM (inactive)
HCT-15
  GI50: 0.29 µM
NCI-H460
  GI50: 0.698 µM (active)
KM-20L2
  GI50: 0.644 µM (active)
K562
  GI50: 0.0851 µM (active)
TK-10
  GI50: 5.96 µM (inactive)
A549
  GI50: 3.44 µM (inactive)
KM12
  GI50: 0.319 µM (active)
OVCAR-5
  GI50: 14.5 µM (inactive)
SNB-78
  GI50: 2.13 µM (inactive)
NCI-H226
  GI50: 23.6 µM (inactive)
DU-145
  GI50: 7.93 µM (inactive)
BT-549
  GI50: 5 µM (inactive)
HCC 2998
  GI50: 3.13 µM (inactive)
RXF 631
  GI50: 1.85 µM (inactive)
OVCAR-4
  GI50: 17.8 µM (inactive)
DMS-114
  GI50: 2.23 µM (inactive)
UACC-257
  GI50: 12.3 µM (inactive)
NCI-H522
  GI50: 0.597 µM (active)
MOLT-4
  GI50: 1.05 µM (active)
PC-3
  GI50: 1.03 µM (active)
MCF7
  GI50: 0.292 µM (active)
SF-268
  GI50: 4.85 µM (inactive)
NCI/ADR-RES
  GI50: 0.989 µM (active)
UACC-62
  GI50: 1.28 µM (inactive)
MDA-N
  GI50: 0.685 µM (active)
SK-MEL-5
  GI50: 1.85 µM (inactive)
U-251
  GI50: 0.524 µM (active)
M19-MEL
  GI50: 2.98 µM (inactive)
DLD-1
  GI50: 0.414 µM (active)
HOP-92
  GI50: 27.5 µM (inactive)
UO-31
  GI50: 7.59 µM (inactive)
XF498
  GI50: 4.3 µM (inactive)
RPMI-8226
  GI50: 0.612 µM (active)
SR
  GI50: 0.0948 µM (active)
CCRF-CEM
  GI50: 0.528 µM (active)
SNB-75
  GI50: 3.32 µM (inactive)
DMS-273
  GI50: 0.294 µM (active)
HCT-116
  GI50: 0.406 µM (active)
